Measured values taken from patent US4882349A, “Pyrrolacetic amides having antiinflammatory activity” (priority 1982, dated 1989).

Legend:
[1] = test system: cough provoked by mechanical stimulation of the tracheal bifurcation mucosa; test: antitussive activity, mechanically provoked coughing; format: in vivo, albino Guinea-pigs; details: 1 h after administration
Experimental: The antitussive effect on albino Guinea-pigs weighing 300 g was evaluated using the method described by Y. Kase (Selected Pharmacological Testing Methods, p.363, Marcel Dekker Inc., New York, 1968). Each dose was tested in a group of animals with a Y cannula inserted into the trachea. In order to provoke coughing, the mucosa of the tracheal bifurcation was mechanically stimulated by insertion of a wild boar's hair through an opening in the cannula, while the other opening was connected to a kymograph to plot the amplitude and/or frequency. The reduction in the number of coughs was evaluated at one hour after administration of the compounds under examination by following the plottings for twenty minutes and comparing the response of the control animals.

[2] = test system: phenyl-p-quinone-induced writhing (abdominal contractions); test: phenylquinone-induced writhing test (analgesic activity), compound given 30 min before phenyl-p-quinone; format: in vivo, male Wistar rats
Experimental: Male Wistar rats weighing 110±5 g were caged for 10 days at 22±1° C. and given a balanced diet with free access to water. Twenty-four hours before the experiment the animals were randomized into groups of 10 and fasted for 14 hours but with free access to water. Each dose was tested in 3 groups of rats. Thirty minutes following administration either orally or parenterally of the products to be tested and the vehicle alone (0.5% carboxymethyl-cellulose in physiological saline) in the control animals, each rat was given 2 ml of a 5% absolute ethanol aqueous solution containing 0.36% of phenyl-p-quinone (Sigma Chemical Company) in order to provoke writhings. Fifteen minutes after administration of phenyl-p-quinone the number of contractions were counted for 20 minutes. The inhibiting effect of the compounds under examination on the abdominal contractions induced by phenyl-p-quinone was calculated by the following formula: % protection= [formula]
Table V lists the tested compounds, doses, routes of administration and their efficacy expressed as percentage of protection, taking into account that phenyl-p-quinone was administered thirty minutes after the compounds.

in vivo [3] = details: rat
[4] = test system: mucus secreted by the respiratory airway; test: antisecretory activity, respiratory mucus secretion; format: in vivo, albino male New Zealand rabbits; details: vs control group
Experimental: The experiment was carried out in accordance with the method described by Y. Kase (Folia Pharmacol. Jap. 73: 605, 1977) for the purpose of investigating whether or not the compounds under examination determine changes in the volume of the mucus secreted by the respiratory airway. Groups of four albino male New Zealand rabbits (mean weight: 2.5 kg) were used for testing each dose per single group. The animals were anesthetized with urethane (1.1 g/ks b.w.) via the intraperitoneal route and a Y cannula was inserted into the trachea. In order to stimulate mucous secretion a humidifier was connected to the cannula permitting the animals to spontaneously breathe air with 100% humidity at a constant temperature of 39° C. The secreted mucus was collected through another opening in the cannula and measured at three and six hours after administration of the compounds under examination or of the vehicle alone administered in the order of […] (controls). Calculation of the increase or decrease in mucous secretion was based upon the percentage differences between the groups treated with the compounds under examination and the control group. Table VII gives the percentage differences in mucous secretion, and the tested compounds with relative doses and routes of administration.

[5] = test system: carrageenin-induced oedema; test: carrageenin-induced oedema test (anti-inflammatory activity); format: in vivo, albino male Wistar rats
Experimental: This effect was evaluated by means of an experimental model reproducing acute inflammation: for this purpose the carrageenin- induced oedema test was employed following the method described by C.
Albino male Wistar rats weighing 140-160 g were caged for 10 days at 22±1° C. and given a balanced diet and water ad libitum. Eighteen hours before the experiment the animals were randomized into groups of ten and fasted but with free access to water. Each dose was tested in three groups of rats. Each compound was given either orally, by gavage, or parenterally--intraperitoneal injection--administering as follows:
controls: 0.5% carboxymethylcellulose suspension in physiological saline, 10 ml/kg
treated: suspension of the compounds to be tested in the same vehicle and at the same volume (10 ml/kg) used for the controls at the doses specified below.
One hour after administration of the compounds and vehicle, in order to provoke the oedema for determining the protective effect of the substances under examination, each rat received, by subcutaneous injection into the plantar surface of the left paw, 0.1 ml of 1% sterile carrageenin suspension.

in vivo [6] = details: mouse

## Cc1ccc(C(=O)c2ccc(CC(=O)NCC(=O)O)n2C)cc1 [Compound 1-c, 1-methyl-5-p-toluoylpyrrole-2-acetamidoacetic acid]
[1]; 50 mg/Kg i.p.
  % inhibition, cough amplitude: 10%
  % inhibition, cough frequency: 25%
[1]; 50 mg/Kg per os
  % inhibition, cough amplitude: 12%
  % inhibition, cough frequency: 20%
[1]; 75 mg/Kg i.p.
  % inhibition, cough amplitude: 15%
  % inhibition, cough frequency: 27%
[1]; 75 mg/Kg per os
  % inhibition, cough amplitude: 20%
  % inhibition, cough frequency: 22%
[1]; 100 mg/Kg i.p.
  % inhibition, cough amplitude: 40%
  % inhibition, cough frequency: 51%
[1]; 100 mg/Kg per os
  % inhibition, cough amplitude: 38%
  % inhibition, cough frequency: 45%
[2]; 5 mg/Kg i.p.
  % Protection: 27.1%
[2]; 5 mg/Kg per os
  % Protection: 25.3%
[2]; 10 mg/Kg i.p.
  % Protection: 46.3%
[2]; 10 mg/Kg per os
  % Protection: 49.0%
[2]; 20 mg/Kg i.p.
  % Protection: 82.0%
[2]; 20 mg/Kg per os
  % Protection: 85.1%
In vivo [3]; ip
  LD50: 780 mg/kg
In vivo [3]; po
  LD50: 1300 mg/kg
[4]; 50 mg/Kg i.p., 3 h
  % difference in mucus secretion: 0.0%
[4]; 50 mg/Kg i.p., 6 h
  % difference in mucus secretion: 0.0%
[4]; 50 mg/Kg per os, 3 h
  % difference in mucus secretion: 0.0%
[4]; 50 mg/Kg per os, 6 h
  % difference in mucus secretion: +6%
[4]; 75 mg/Kg i.p., 3 h
  % difference in mucus secretion: -12%
[4]; 75 mg/Kg i.p., 6 h
  % difference in mucus secretion: -7%
[4]; 75 mg/Kg per os, 3 h
  % difference in mucus secretion: -10%
[4]; 75 mg/Kg per os, 6 h
  % difference in mucus secretion: -8%
[4]; 100 mg/Kg i.p., 3 h
  % difference in mucus secretion: -37%
[4]; 100 mg/Kg i.p., 6 h
  % difference in mucus secretion: -25%
[4]; 100 mg/Kg per os, 3 h
  % difference in mucus secretion: -35%
[4]; 100 mg/Kg per os, 6 h
  % difference in mucus secretion: -22%
[5]; 25 mg/Kg per os, 2 h
  oedema % inhibition: 38,6%
[5]; 25 mg/Kg per os, 4 h
  oedema % inhibition: 39,1%
[5]; 25 mg/Kg per os, 6 h
  oedema % inhibition: 37.2%
[5]; 25 mg/Kg per os, 24 h
  oedema % inhibition: 12.1%
[5]; 25 mg/Kg per os, 48 h
  oedema % inhibition: 0.0%
[5]; 25 mg/Kg per os, 72 h
  oedema % inhibition: 0.0%
[5]; 25 mg/Kg, Table IV (route not given), 2 h
  oedema % inhibition: 40.0%
[5]; 25 mg/Kg, Table IV (route not given), 4 h
  oedema % inhibition: 44.8%
[5]; 25 mg/Kg, Table IV (route not given), 6 h
  oedema % inhibition: 45.0%
[5]; 25 mg/Kg, Table IV (route not given), 24 h
  oedema % inhibition: 9.0%
[5]; 25 mg/Kg, Table IV (route not given), 48 h
  oedema % inhibition: 0.0%
[5]; 25 mg/Kg, Table IV (route not given), 72 h
  oedema % inhibition: 0.0%
[5]; 50 mg/Kg per os, 2 h
  oedema % inhibition: 51.8%
[5]; 50 mg/Kg per os, 4 h
  oedema % inhibition: 58.9%
[5]; 50 mg/Kg per os, 6 h
  oedema % inhibition: 60.4%
[5]; 50 mg/Kg per os, 24 h
  oedema % inhibition: 18.7%
[5]; 50 mg/Kg per os, 48 h
  oedema % inhibition: 0.0%
[5]; 50 mg/Kg per os, 72 h
  oedema % inhibition: 0.0%
[5]; 50 mg/Kg, Table IV (route not given), 2 h
  oedema % inhibition: 55.0%
[5]; 50 mg/Kg, Table IV (route not given), 4 h
  oedema % inhibition: 64.0%
[5]; 50 mg/Kg, Table IV (route not given), 6 h
  oedema % inhibition: 65.4%
[5]; 50 mg/Kg, Table IV (route not given), 24 h
  oedema % inhibition: 20.0%
[5]; 50 mg/Kg, Table IV (route not given), 48 h
  oedema % inhibition: 8.0%
[5]; 50 mg/Kg, Table IV (route not given), 72 h
  oedema % inhibition: 0.0%
[5]; 100 mg/Kg per os, 2 h
  oedema % inhibition: 69.0%
[5]; 100 mg/Kg per os, 4 h
  oedema % inhibition: 70.1%
[5]; 100 mg/Kg per os, 6 h
  oedema % inhibition: 67.0%
[5]; 100 mg/Kg per os, 24 h
  oedema % inhibition: 26.0%
[5]; 100 mg/Kg per os, 48 h
  oedema % inhibition: 10.0%
[5]; 100 mg/Kg per os, 72 h
  oedema % inhibition: 0.0%
[5]; 100 mg/Kg, Table IV (route not given), 2 h
  oedema % inhibition: 74.8%
[5]; 100 mg/Kg, Table IV (route not given), 4 h
  oedema % inhibition: 77.5%
[5]; 100 mg/Kg, Table IV (route not given), 6 h
  oedema % inhibition: 74.0%
[5]; 100 mg/Kg, Table IV (route not given), 24 h
  oedema % inhibition: 30.4%
[5]; 100 mg/Kg, Table IV (route not given), 48 h
  oedema % inhibition: 12.0%
[5]; 100 mg/Kg, Table IV (route not given), 72 h
  oedema % inhibition: 0.0%
In vivo [6]; ip
  LD50: 700 mg/kg
In vivo [6]; po
  LD50: 1000 mg/kg
